Read-outs that look alike come from different tables or passages of the source.
How the values were obtained:
[1] = in the body, cited from earlier work
[2] = tested on: obstructed kidney (UUO); assay: UUO model, delayed administration of suramin at day 3 of obstruction; format: in vivo, mouse
Method: Animals and the UUO Model. The UUO model used was described above. The abdominal cavity was exposed via a midline incision and the left ureter was isolated and ligated. Sham-operated animal received the same surgical procedures but without ureter ligation. To establish the time course of renal fibrogenesis in this model, four groups of mice (n=5) were killed at days 1, 3, 7, and 14, respectively, after left ureter ligation. […] Control mice were injected with the equal volume of vehicle (0.9% saline). At the end of the experiments, mice were killed and the kidneys were removed. One part of the kidneys was fixed in 10% phosphate-buffered formalin for histological studies. Another part was snap-frozen in liquid nitrogen and stored at −80° C. for protein extractions.

[3] = tested on: obstructive kidney (UUO); assay: UUO obstructive nephropathy model, single dose of suramin immediately after ureteral ligation; format: in vivo, mouse
Method: UUO and Remnant Kidney Models and Suramin Treatment. The UUO model was established in male C57 back mice that weighed 20-25 g (Jackson Laboratory, Bar Harbor, Me.) as described in our previous study. Briefly, the abdominal cavity was exposed via a midline incision and the left ureter was isolated and ligated. The contralateral kidney was used as controls. […] Six mice were used in each group.
(§1) Immunoblot Analysis. Immunoblot analysis of NRK-49F cells and tissue samples were conducted as described previously. The densitometry analysis of immunoblot results was conducted by using NIH Image software (National Institutes of Health, Bethesda, Md.).
Immunofluorescent and Immunohistochemical Staining Immunofluorescent and immunohistochemical staining was performed according to the procedure described in our previous studies. For assessment of renal fibrosis, masson trichrome staining was performed according to the protocol provided by the manufacture (Sigma, St. Louis, Mo.). The collagen tissue area (blue color) was quantitatively measured using Image Pro-Plus software (Media-Cybernetics, Silver Spring, Md., USA) by drawing a line around the perimeter of positive staining area, and the average ratio to each microscopic field (400×) was calculated and graphed.
Quantitative Real-Time PCR. The procedure for quantitative qRT-PCR and the primers used for all measurements have been described previously. Briefly, total RNA from mouse kidney tissue was extracted using RNeasy Kit (QIAGEN, Valencia, Calif.). RNA (1 μg) was reverse transcribed using the AMV First Strand cDNA synthesis kit (Roche Diagnostics Corporation, Indianapolis, Ind.) and random oligodeoxynucleotide primers. Then, real time qRT-PCR amplifications were performed. Relative mRNA abundance was determined from the nanogram ratios of specific mRNA to 18S ribosomal RNA measured in the same samples, and fold change was calculated relative to the group of sham-operated mice with vehicle treatment. Template-free reactions for each pair of primers were also included as controls.

[4] = tested on: NRK-49F cells; assay: Delayed suramin treatment of TGF-β1-pretreated renal interstitial fibroblasts; format: cell-based, rat; details: TGF-β1 pretreatment 24 and 48 h, then suramin 100 μM for additional 24 and 48 h with TGF-β1
Method: At 48 h after pretreatment with TGF-β1, expression of α-SMA and fibronectin was induced, which is similar to the in-vivo situation.

[5] = tested on: NRK-49F cells; assay: TGF-β1-induced activation of renal interstitial fibroblasts (immunoblot); format: cell-based, rat; details: 2 ng/ml TGF-β1, 24 h
Method: Cell Culture and Treatments. NRK-49F cells were cultured in Dulbecco's modified eagle's medium (DMEM) (Sigma-Aldrich, St. Louis, Mo.) containing 5% fetal bovine serum (FBS), 0.5% penicillin and streptomycin in an atmosphere of 5% CO2 and 95% air at 37° C. […] For TGF-β1 treatment, NRK-49F were starved for 24 h by incubation with 0.5% FBS containing DMEM and then exposed to TGF-β1 (0.5-2 ng/ml) for 24 h.
as §1

[6] = 20 mg/kg at day 3, kidney at day 10
[7] = 1 mg/kg i.p. single dose, day 7
[8] = 5 mg/kg i.p. single dose, day 7
[9] = 10 mg/kg i.p. single dose, day 7
[10] = 20 mg/kg i.p. single dose, 21 days after UUO injury

Cc1ccc(C(=O)Nc2ccc(S(=O)(=O)O)c3cc(S(=O)(=O)O)cc(S(=O)(=O)O)c23)cc1NC(=O)c1cccc(NC(=O)Nc2cccc(C(=O)Nc3cc(C(=O)Nc4ccc(S(=O)(=O)O)c5cc(S(=O)(=O)O)cc(S(=O)(=O)O)c45)ccc3C)c2)c1 [Suramin]
half life [1]: 21 days
half life ([1]; listed as suramin): at least 21 days
EGFR phosphorylation [2, 6]: significant reduction
PDGFR phosphorylation [2, 6]: significant reduction
Smad3 phosphorylation [2, 6]: largely blocked
expression of total EGFR [2, 6]: not affected
expression of total PDGFR [2, 6]: not affected
phosphorylation of ERK1/2 [2, 6]: not further increased
phosphorylation of STAT3 [2, 6]: not further increased
total protein level of ERK1/2 [2, 6]: did not alter
total protein level of STAT3 [2, 6]: did not alter
α-SMA expression ([2]; 20 mg/kg at day 3, both 7- and 14-day treatment groups): reduced
Masson trichrome-positive areas ([2]; 20 mg/kg i.p. single dose at day 3, kidney at day 10): reduced on day 10 to a level similar to that in the kidney at 3 days of obstruction
fibronectin expression in kidney [3, 7]: slight reduction
α-SMA expression in kidney [3, 7]: slight reduction
fibronectin expression in kidney [3, 8]: further inhibition
α-SMA expression in kidney [3, 8]: further inhibition
collagen 1 expression in kidney ([3]; 5 mg/kg single dose, day 7): observed effect
fibronectin expression in kidney [3, 9]: complete blockade
α-SMA expression in kidney [3, 9]: significant, but incomplete, suppression
collagen 1 expression in kidney ([3]; 10 mg/kg single dose, day 7): greater inhibition
suppression of fibronectin expression in kidney [3, 10]: approximately 50%
suppression of α-SMA expression in kidney [3, 10]: approximately 50%
EGF receptor phosphorylation ([3]; 20 mg/kg single dose, day 7): abolished
ICAM-1 mRNA expression ([3]; 20 mg/kg single dose, day 7): decreased
IL-1β mRNA expression ([3]; 20 mg/kg single dose, day 7): decreased
PDGF receptor phosphorylation ([3]; 20 mg/kg single dose, day 7): abolished
TGF-β1 mRNA expression reduced to (real-time PCR) ([3]; 20 mg/kg single dose, day 7): 45%
TGF-β1 type I receptor mRNA expression ([3]; 20 mg/kg single dose, day 7): suppressed its basal expression
TGF-β type II receptor mRNA expression reduced to (real-time PCR) ([3]; 20 mg/kg single dose, day 7): 94%
TNF-α mRNA expression ([3]; 20 mg/kg single dose, day 7): decreased
UUO injury-induced phosphorylation of Smad2 ([3]; 20 mg/kg single dose, day 7): abolished
UUO injury-induced phosphorylation of Smad3 ([3]; 20 mg/kg single dose, day 7): abolished
collagen 1 expression in kidney ([3]; 20 mg/kg single dose, day 7): reduced its expression to the basal level
expression level of total ERK1/2 ([3]; 20 mg/kg single dose, day 7): did not affect
expression level of total STAT3 ([3]; 20 mg/kg single dose, day 7): did not affect
expression of total EGF receptor ([3]; 20 mg/kg single dose, day 7): did not have an inhibitory effect
expression of total PDGF receptor ([3]; 20 mg/kg single dose, day 7): did not have an inhibitory effect
expression of total Smad2 ([3]; 20 mg/kg single dose, day 7): not affected
expression of total Smad3 ([3]; 20 mg/kg single dose, day 7): not affected
leukocyte infiltration (naphthol-AS-D-chloroacetate esterase staining) ([3]; 20 mg/kg single dose, day 7): reduced leukocyte infiltration to basal levels
morphological lesions and interstitial fibrosis (masson trichrome staining) ([3]; 20 mg/kg single dose, day 7): obvious attenuation
phosphorylation of ERK1/2 ([3]; 20 mg/kg single dose, day 7): abolished
phosphorylation of STAT3 ([3]; 20 mg/kg single dose, day 7): abolished
collagen 1 expression in kidney ([3]; 20 mg/kg single dose, day 21): partially suppressed
α-SMA expression in kidney ([3]; 20 mg/kg vs 10 mg/kg i.p. single dose, day 7): did not further reduce
effective doses of suramin ([3]; applicant's UUO and remnant kidney studies): 5 to 10 mg/kg
TGF-β1-induced fibronectin expression [4]: suppressed further increase
TGF-β1-induced α-SMA expression [4]: suppressed further increase
TGF-β1 induced phosphorylation of Smad2 [5]: abolished
TGF-β1 induced phosphorylation of Smad3 [5]: abolished
TGF-β1-induced fibronectin expression ([5]; in the presence of suramin): abolished
TGF-β1-induced α-SMA expression ([5]; in the presence of suramin): suppressed to the basal level
